The values that follow come from EPA's ToxValDB 9.5 (doi:10.2903/j.efsa.2017.4700).

In general, NOAEL refers to the highest dose or exposure tested at which no adverse effect was seen. As a reminder, the LC50 is the concentration lethal to half of the exposed cells or organisms.

Values after ≈ are worked out from the molar mass of the structure shown. Values joined by “and” are separate entries in the source; they are usually repeats but may differ in a detail not shown here. Equal values may be shown once.

In series [1] the test system is Typhlodromus pyri. Put plainly: LR50; higher = less toxic. Particulars: not reported; mortality.
Series [2] concerns Tagia sp. Conditions: chronic/long-term; reproduction.
For series [3], the system named is Pimephales promelas. Conditions: chronic/long-term; other.
For series [4] the following is noted: reproduction developmental; clinical signs.
Series [5] has as its system Daphnia magna. Particulars: chronic/long-term; duration: 21 days; growth.
Series [6] concerns Canidae. Conditions: Dog Other, hematological.
The test system of series [7] is Colinus virginianus.
Series [8] has as its system Rattus norvegicus.
Series [9] relates to Oncorhynchus mykiss. Particulars: acute; mortality.
Series [10] has as its system Apis mellifera. Conditions: acute, mortality.

The molecule `CN(C)C(=S)SSC(=S)N(C)C` [Bis(dimethylaminothiocarbonyl) disulfide] gave an LR50 in [1] of 511 g/ha. The NOEC in [2] was determined as 8.45 mg/kg; in series [3], 1.1 µg/L; in series [5], 20 µg/L; in [7] (reproduction developmental), 37.5 mg/kg-day. Also, the NOAEL is 1.6 mg/kg-day in series [4]; 0.84 mg/kg-day in series [6] (chronic, duration: 1 years); 2 mg/kg-day in [6] (subchronic, duration: 90 days); 1.6 mg/kg-day in [8] (chronic); 1.5 mg/kg-day in series [8] (chronic, duration: 2 years, body weight); < 7.5 mg/kg-day and 3 mg/kg-day in [8] (reproduction developmental, body weight). Moreover, the LD50 was 930 mg/kg-day in series [7] (acute, oral, mortality); 1800 mg/kg-day in [8] (acute, oral, mortality); greater than 100 µg/piece in series [10] (dermal); greater than 107 µg/piece in series [10] (oral, unspecified). The molecule also displayed an LC50 in [9] of 0.171 µg/mL (≈ 0.711 µM).
